{"source": "patent US8557842B2", "about": "(priority 2010, dated 2013)", "key": {"human DAT": {"target": "T1, human DAT (Homo sapiens, UniProt Q01959)", "T1 construct": "expressed in transfected cells; cells as described by Chen et al., J. Neurochem; 2004, 89:853-864", "T1 sequence (Q01959 whole entry)": "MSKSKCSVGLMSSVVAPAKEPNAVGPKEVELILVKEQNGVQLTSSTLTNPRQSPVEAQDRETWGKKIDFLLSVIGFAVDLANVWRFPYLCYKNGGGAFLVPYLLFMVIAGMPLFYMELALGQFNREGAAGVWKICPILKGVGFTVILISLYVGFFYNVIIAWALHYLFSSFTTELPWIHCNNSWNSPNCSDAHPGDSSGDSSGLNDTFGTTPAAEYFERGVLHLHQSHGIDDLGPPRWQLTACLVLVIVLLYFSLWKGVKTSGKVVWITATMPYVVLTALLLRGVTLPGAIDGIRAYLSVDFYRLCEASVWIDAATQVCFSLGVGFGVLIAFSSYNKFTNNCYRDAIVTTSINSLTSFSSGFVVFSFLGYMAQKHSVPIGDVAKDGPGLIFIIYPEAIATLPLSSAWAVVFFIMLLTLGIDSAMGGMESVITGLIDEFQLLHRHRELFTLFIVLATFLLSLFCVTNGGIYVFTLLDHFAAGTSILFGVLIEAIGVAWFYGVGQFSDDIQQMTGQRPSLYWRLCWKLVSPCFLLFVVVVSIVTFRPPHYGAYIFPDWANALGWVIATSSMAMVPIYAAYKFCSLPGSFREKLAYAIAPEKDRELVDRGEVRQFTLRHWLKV", "assay": "Inhibition of [3H]DA uptake in cells expressing cloned human DAT", "format": "cell-based"}, "human SERT": {"target": "T2, human SERT (Homo sapiens, UniProt P31645)", "T2 construct": "expressed in transfected cells; cells as described by Eshleman et al., J. Pharmacol. Exp. Ther. 1995, 274:276-283", "T2 sequence (P31645 whole entry)": "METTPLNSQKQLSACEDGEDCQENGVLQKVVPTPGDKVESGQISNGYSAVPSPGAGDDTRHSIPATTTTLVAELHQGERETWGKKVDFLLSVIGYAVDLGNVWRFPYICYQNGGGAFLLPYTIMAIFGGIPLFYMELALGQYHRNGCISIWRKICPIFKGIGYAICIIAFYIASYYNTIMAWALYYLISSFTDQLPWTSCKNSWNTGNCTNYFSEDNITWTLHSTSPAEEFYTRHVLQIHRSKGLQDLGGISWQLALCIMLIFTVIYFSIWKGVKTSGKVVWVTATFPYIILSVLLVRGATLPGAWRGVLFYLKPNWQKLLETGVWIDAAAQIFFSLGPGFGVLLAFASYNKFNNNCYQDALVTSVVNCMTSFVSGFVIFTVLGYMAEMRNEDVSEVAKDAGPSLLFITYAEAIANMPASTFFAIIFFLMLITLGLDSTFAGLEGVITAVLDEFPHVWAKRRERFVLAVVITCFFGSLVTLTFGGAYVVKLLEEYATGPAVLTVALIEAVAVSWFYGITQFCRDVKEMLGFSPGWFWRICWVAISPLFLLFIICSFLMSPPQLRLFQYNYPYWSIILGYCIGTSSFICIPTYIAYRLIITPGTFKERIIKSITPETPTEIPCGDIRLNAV", "assay": "cell-based"}, "human NET": {"target": "T3, human NET (Homo sapiens, UniProt P23975)", "T3 construct": "expressed in transfected cells; cells as described by Reith et al., J. Neurosci", "T3 sequence (P23975 whole entry)": "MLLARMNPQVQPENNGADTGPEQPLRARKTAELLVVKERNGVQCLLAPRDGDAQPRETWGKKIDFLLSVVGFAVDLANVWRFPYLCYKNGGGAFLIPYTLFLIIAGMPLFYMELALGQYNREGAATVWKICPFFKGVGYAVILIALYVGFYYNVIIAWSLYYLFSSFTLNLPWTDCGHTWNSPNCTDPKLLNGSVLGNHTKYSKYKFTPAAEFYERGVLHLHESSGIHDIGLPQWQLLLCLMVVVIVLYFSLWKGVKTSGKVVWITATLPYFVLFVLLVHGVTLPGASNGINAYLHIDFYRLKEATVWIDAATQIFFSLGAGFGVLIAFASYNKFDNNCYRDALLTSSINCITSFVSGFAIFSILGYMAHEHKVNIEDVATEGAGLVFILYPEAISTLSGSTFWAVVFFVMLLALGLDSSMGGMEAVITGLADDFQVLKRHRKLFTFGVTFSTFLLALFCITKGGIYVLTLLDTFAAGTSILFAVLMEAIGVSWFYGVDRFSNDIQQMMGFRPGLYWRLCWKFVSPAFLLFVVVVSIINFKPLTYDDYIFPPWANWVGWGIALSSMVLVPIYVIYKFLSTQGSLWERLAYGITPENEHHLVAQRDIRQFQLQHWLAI", "assay": "cell-based"}, "Male C57BL/6 mice": {"tested_on": "Male C57BL/6 mice", "assay": "Locomotor ambulatory activity", "format": "in vivo", "text": "Many, but not all, psychostimulants with potent action at DAT, also stimulate locomotor ambulatory activity in rodents. […] Male C57BL/6 mice were contained in a box equipped with infrared beams, the consecutive interruption of which by horizontal activity by the mouse provided a measure for ambulation."}, "adult male C57BL/6 mice": {"tested_on": "adult male C57BL/6 mice", "assay": "Forced swim test model of antidepressant-like activity", "format": "in vivo", "conditions": "vs saline", "experimental": "Data are mean ±SEM (vertical bar). ***P<0.001, n=7-9 (One-way ANOVA and Bonferroni post-hoc tests).\nThe Forced Swim Test (FST) is a rodent model often used to evaluate the anti-depressive effect of therapeutics. Rats swim under conditions in which escape is not possible. On the first day, rats are forced to swim for 15 minutes. The animals are observed to initially struggle to escape from the water. They then adopt a posture of immobility making only movements necessary to keep their heads above water. The rats are retested 24 hours later. The immobility increases. Treatment with standard antidepressant drugs within the 24 hours between the first exposure to forced swimming and retesting can block facilitated immobility, an effect which is associated with antidepressant efficacy in humans. See Porsolt et al, (1977) Nature 266:730-732; Detke et al. (1995) Psychopharmacology 121:66-72.\nAntidepressant-like activity of compound 11 was tested in the forced swim test model as previously described (Porsolt et al., supra; Castagne et al. (2011) Curr Protoc Neurosci 55: Unit 8.10A). Briefly, adult male C57BL/6 mice (N=7-9/group) were placed into individual glass cylinders containing clean 25° C. (±1° C.) water, 15 cm deep for 15 minutes. Mice were removed, dried and returned to their home cages. A second 6-minute swim test was given 24 hours after the first. Saline (3 ml/kg, i.p.), Compound 11 (30 mg/kg, i.p.) or desipramine (10 mg/kg, i.p.; a well-known antidepressant, used as a positive control) were administered […], 5 hours, and 1 hour before the second swim test (i.e., 30 minutes, 19 hours and 23 hours after the first swim). Test sessions were video recorded. Behavior during the 6-minute swim test was scored from the videotapes. The cumulative amount of time that the mouse was immobile in the water during the last 4 minutes of the test was measured, as was the latency for the mouse to show the first bout of immobility behavior. Immobility was defined as the mouse performing no movements except those necessary to keep the head above the water (e.g., no swimming or climbing behaviors). […] Immobility scores were analyzed by a one-way ANOVA, followed by the Bonferroni post-hoc analysis."}, "[1]": {"assay": "Brain uptake: brain and plasma levels by mass spectrometry", "conditions": "for concentration at 5 min / concentration at 30 min: male, CD-1, mouse, intraperitoneal, 30 mg/kg", "experimental": "Data shown are mean±SEM (vertical bar).\nBrain and plasma levels of 11 were determined by mass spectrometry."}, "[2]": {"conditions": "25 mg/kg i.p., reported levels, cited from earlier work"}, "[3]": {"conditions": "tested at 10 mg/kg and 30 mg/kg"}}, "note": "Entries after “also recorded” stand apart in the source; their conditions may differ. Like-named read-outs stand apart in the source and are kept apart here."}
{"molecule": "COC(=O)C1[C@@H](OC(=O)c2ccccc2)CC2CCC1(C)N2C", "note": "(stereo partly drawn) [Compound 11, Methyl (1R,2R,3S,5S)-(−)-3-(benzoyloxy)-1,8-dimethyl-8-azabicyclo[3.2.I]octane-2-carboxylate]", "values": [{"measurement": "Ki", "setting": "human DAT", "result": "168 ± 23", "unit": "nM"}, {"measurement": "Ki", "setting": "human SERT", "result": "435 ± 77", "unit": "nM"}, {"measurement": "Ki", "setting": "human NET", "result": "488 ± 101", "unit": "nM"}, {"measurement": "Locomotor stimulation", "setting": "Male C57BL/6 mice; 30 mg/kg intraperitoneally", "result": "did not stimulate locomotion to levels above those seen with 10 mg/kg of cocaine"}, {"measurement": "Immobility time", "setting": "adult male C57BL/6 mice; 30 mg/kg i.p., last 4 minutes of the 6-minute swim test", "result": "decreased immobility time; also recorded: as effective as the antidepressant desipramine in reducing immobility time"}, {"measurement": "Latency to first episode of immobility", "setting": "adult male C57BL/6 mice; 30 mg/kg i.p.", "result": "increased latency to first episode of immobility; also recorded: significantly increased over saline"}, {"measurement": "concentration at 5 min", "setting": "[1]; brain", "result": "8600 ± 700", "unit": "ng/mL"}, {"measurement": "concentration at 30 min", "setting": "[1]; brain", "result": "3800 ± 200", "unit": "ng/mL"}, {"measurement": "concentration at 5 min", "setting": "[1]; plasma", "result": "3300 ± 200", "unit": "ng/mL"}, {"measurement": "concentration at 30 min", "setting": "[1]; plasma", "result": "1700 ± 300", "unit": "ng/mL"}, {"measurement": "Brain penetration", "setting": "[1]; pharmacokinetic assay, compared with cocaine", "result": "occupies the brain as readily as cocaine"}]}
{"molecule": "CCC[C@@]12CC[C@@H](C[C@H](OC(=O)c3ccccc3)[C@@H]1C(=O)OC)N2C", "note": "[Compound 11a, Methyl (1R,2R,3S,5S)-(−)-1-propyl-3-(benzoyloxy)-8-methyl-8-azabicyclo[3.2.1]octane-2-carboxylate]", "values": [{"measurement": "Ki", "setting": "human DAT", "result": "871 ± 205", "unit": "nM"}, {"measurement": "Ki", "setting": "human SERT", "result": 2990, "unit": "nM"}, {"measurement": "Ki", "setting": "human NET", "result": "796 ± 195", "unit": "nM"}, {"measurement": "Locomotor stimulation", "setting": "Male C57BL/6 mice; [3]", "result": "locomotor activities below those observed with 10 mg/kg of cocaine"}]}
{"molecule": "CC[C@@]12CC[C@@H](C[C@H](OC(=O)c3ccccc3)[C@@H]1C(=O)OC)N2C", "note": "[Compound 11b, Methyl (1R,2R,3S,5S)-(−)-1-ethyl-3-(benzoyloxy)-8-methyl-8-azabicyclo[3.2.1]octane-2-carboxylate]", "values": [{"measurement": "Ki", "setting": "human DAT", "result": "95.1 ± 17", "unit": "nM"}, {"measurement": "Ki", "setting": "human SERT", "result": 1110, "unit": "nM"}, {"measurement": "Ki", "setting": "human NET", "result": "598 ± 179", "unit": "nM"}, {"measurement": "Locomotor stimulation", "setting": "Male C57BL/6 mice; [3]", "result": "locomotor activities below those observed with 10 mg/kg of cocaine"}]}
{"molecule": "CCCCC[C@@]12CC[C@@H](C[C@H](OC(=O)c3ccccc3)[C@@H]1C(=O)OC)N2C", "note": "[Compound 11c, Methyl (1R,2R,3S,5S)-(+)-1-pentyl-3-(benzoyloxy)-8-methyl-8-azabicyclo[3.2.1]octane-2-carboxylate]", "values": [{"measurement": "Ki", "setting": "human DAT", "result": 1270, "unit": "nM"}, {"measurement": "Ki", "setting": "human SERT", "result": 1890, "unit": "nM"}, {"measurement": "Ki", "setting": "human NET", "result": "1600 ± 21", "unit": "nM"}, {"measurement": "Locomotor stimulation", "setting": "Male C57BL/6 mice; [3]", "result": "locomotor activities below those observed with 10 mg/kg of cocaine"}]}
{"molecule": "COC(=O)[C@H]1[C@@H](OC(=O)c2ccccc2)C[C@@H]2CC[C@@]1(c1ccccc1)N2C", "note": "[Compound 11d, Methyl (1R,2R,3S,5S)-(−)-3-(benzoyloxy)-1-phenyl-8-methyl-8-azabicyclo[3.2.1]octane-2-carboxylate]", "values": [{"measurement": "Ki", "setting": "human DAT", "result": "31.9 ± 5.7", "unit": "nM"}, {"measurement": "Potency at blocking DAT relative to cocaine", "setting": "human DAT; versus cocaine", "result": "ten-fold more potent than cocaine"}, {"measurement": "Ki", "setting": "human SERT", "result": "974 ± 308", "unit": "nM"}, {"measurement": "Ki", "setting": "human NET", "result": 1980, "unit": "nM"}, {"measurement": "Locomotor stimulation", "setting": "Male C57BL/6 mice; [3]", "result": "locomotor activities below those observed with 10 mg/kg of cocaine"}]}
{"molecule": "COC(=O)[C@H]1[C@@H](OC(=O)c2ccccc2)C[C@@H]2CC[C@H]1N2C", "note": "[cocaine, methyl-(1R,2R,3S,5S)-3-(benzoyloxy)-8-methyl-8-azabicyclo[3.2.1]octane-2-carboxylate]", "values": [{"measurement": "Locomotor stimulation", "setting": "Male C57BL/6 mice; 10 mg/kg intraperitoneally", "result": "slight elevation above saline"}, {"measurement": "Locomotor stimulation", "setting": "Male C57BL/6 mice; 30 mg/kg intraperitoneally", "result": "pronounced increase"}, {"measurement": "Brain level", "setting": "[2]; 5 minutes", "result": "6700 ± 1200", "unit": "ng/mL"}, {"measurement": "Plasma level", "setting": "[2]; 5 minutes", "result": "1100 ± 100", "unit": "ng/mL"}, {"measurement": "Brain level", "setting": "[2]; 30 minutes", "result": "2300 ± 300", "unit": "ng/mL"}, {"measurement": "Plasma level", "setting": "[2]; 30 minutes", "result": "400 ± 50", "unit": "ng/mL"}]}
{"molecule": "CNCCCN1c2ccccc2CCc2ccccc21", "note": "[desipramine, reference compound]", "values": [{"measurement": "Immobility time", "setting": "adult male C57BL/6 mice; 10 mg/kg i.p.", "result": "decreased immobility time"}, {"measurement": "Latency to first episode of immobility", "setting": "adult male C57BL/6 mice; 10 mg/kg i.p.", "result": "increased latency to first episode of immobility"}]}
